Biological target: T1, human M4 muscarinic acetylcholine receptor (Homo sapiens, UniProt P08173)
T1 construct: expressed in transfected cells; host or cells: CHO-K1
T1 sequence (P08173 1-479): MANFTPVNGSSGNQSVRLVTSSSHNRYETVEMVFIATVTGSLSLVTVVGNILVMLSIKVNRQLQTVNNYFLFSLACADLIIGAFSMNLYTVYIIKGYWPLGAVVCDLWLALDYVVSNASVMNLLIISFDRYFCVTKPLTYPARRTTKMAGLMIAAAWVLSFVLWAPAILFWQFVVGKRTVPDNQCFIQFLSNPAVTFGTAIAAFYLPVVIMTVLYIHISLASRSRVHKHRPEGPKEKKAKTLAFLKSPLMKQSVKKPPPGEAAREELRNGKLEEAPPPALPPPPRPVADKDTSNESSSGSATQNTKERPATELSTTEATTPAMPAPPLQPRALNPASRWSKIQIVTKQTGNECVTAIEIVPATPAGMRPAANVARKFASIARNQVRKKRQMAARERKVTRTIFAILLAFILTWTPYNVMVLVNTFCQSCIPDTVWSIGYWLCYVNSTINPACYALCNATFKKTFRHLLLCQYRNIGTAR
Experiment: human FLIPR-based M4 PAM assay (CHO-K1 cells, human M4 receptor and Gαqi5, calcium dye fluorescence, acetylcholine at 20% of maximum)
Assay type: cell-based
Conditions: inflection point (IP) of 4 parameter logistic dose response curve; CHO-K1 cells with human M4 receptor and Gαqi5; FLIPR Tetra
Procedure: In a typical experiment the M4 muscarinic acetylcholine receptor modulating activity of the compounds of the present invention was determined in accordance with the following experimental method. […] On the day of assay, growth medium is removed, the cells are washed 2 times with wash buffer, and cells are incubated in dye loading buffer at 37° C., 5% CO2 for ˜1 hour. […] Next, 10 uL of acetylcholine is added (final concentration calculated so as to achieve 20% of the maximum acetycholine response), and the fluorescence reading is continued for 3.5 min. In some cases, a third addition of acetylcholine (final concentration calculated to achieve 70% of the maximal acetylcholine response) is performed. The resulting dose response curves are fit to a 4 parameter logistic equation and the final result is determined as the inflection point (IP) of the curve
CHO-K1 cells stably transfected with human M4 receptor and chimeric G-protein Gαqi5 are thawed from liquid N2 storage, resuspended in growth medium, plated in black, clear bottom 384 well plates, and incubated 16-20 hours at 37° C., 5% CO2.
On the day of assay, growth medium is removed, the cells are washed 2 times with wash buffer, and cells are incubated in dye loading buffer at 37° C., 5% CO2 for ˜1 h. […] Next, 10 uL of acetylcholine is added (final concentration calculated so as to achieve 20% of the maximum acetycholine response), and the fluorescence reading is continued for 3.5 min. In some cases, a third addition of acetylcholine (final concentration calculated to achieve 70% of the maximal acetylcholine response) is performed.

Row | SMILES | EC50 [nM]
1 | COc1ccc(OC2CCN(c3nc4c(cc3C)C(=O)NCC4)CC2)cn1 [Example 1, 2-(4-((6-Methoxypyridin-3-yl)oxy)piperidin-1-yl)-3-methyl-7,8-dihydro-1,6-naphthyridin-5(6H)-one] | 393
2 | COc1ccc(CN2CCc3nc(N4CCC(Oc5ccc(OC)nc5)CC4)c(C)cc3C2=O)cc1 [Example 2, 6-(4-methoxybenzyl)-2-(4-((6-methoxypyridin-3-yl)oxy)piperidin-1-yl)-3-methyl-7,8-dihydro-1,6-naphthyridin-5(6H)-one] | 988
3 | COc1ccc(OC2CCN(c3nc4c(cc3C)C(=O)N(Cc3ccncc3)CC4)CC2)cn1 [Example 3, 2-(4-((6-methoxypyridin-3-yl)oxy)piperidin-1-yl)-3-methyl-6-(pyridin-4-ylmethyl)-7,8-dihydro-1,6-naphthyridin-5(6H)-one] | 453
4 | COc1ccc(OC2CCN(c3nc4c(cc3C)C(=O)N(C)CC4)CC2)cn1 [Example 4, 2-(4-((6-methoxypyridin-3-yl)oxy)piperidin-1-yl)-3,6-dimethyl-7,8-dihydro-1,6-naphthyridin-5(6H)-one] | 431
5 | COc1ccc(OC2CCN(c3nc4c(cc3C)c(=O)[nH]c(=O)n4C)CC2)cn1 [Example 5, 7-(4-((6-Methoxypyridin-3-yl)oxy)piperidin-1-yl)-1,6-dimethylpyrido[2,3-d]pyrimidine-2,4(1H,3H)-dione] | 366
6 | COc1ccc(OC2CCN(c3nc4[nH]c(=O)n(C)c(=O)c4cc3C)CC2)cn1 [Example 6, 7-(4-((6-Methoxypyridin-3-yl)oxy)piperidin-1-yl)-3,6-dimethylpyrido[2,3-d]pyrimidine-2,4(1H,3H)-dione] | 59
7 | Cc1cc2c(=O)[nH]c(=O)[nH]c2nc1N1CCC(Oc2cccc(C#N)c2)CC1 [Example 7, 3-((1-(6-methyl-2,4-dioxo-1,2,3,4-tetrahydro-pyrido[2,3-d]pyrimidin-7-yl)piperidin-4-yl)oxy)benzonitrile] | 41
8 | COc1ccc(OC2CCN(c3nc4[nH]c(=O)[nH]c(=O)c4cc3C)CC2)cn1 [Example 8, 7-(4-((6-Methoxypyridin-3-yl)oxy)piperidin-1-yl)-6-methylpyrido[2,3-d]pyrimidine-2,4(1H,3H)-dione] | 18
9 | COc1ccc(OC2CCN(c3nc4nc(CO)[nH]c(=O)c4cc3C)CC2)cn1 [Example 9, 2-(Hydroxymethyl)-7-(4-((6-methoxypyridin-3-yl)oxy)piperidin-1-yl)-6-methylpyrido[2,3-d]pyrimidin-4(3H)-one] | 140
10 | COc1ccc(OC2CCN(c3nc4nc[nH]c(=O)c4cc3C)CC2)cn1 [Example 10, 7-(4-((6-methoxypyridin-3-yl)oxy)piperidin-1-yl)-6-methylpyrido[2,3-d]pyrimidin-4(3H)-one] | 34
11 | COc1ccc(OC2CCN(c3nc4cn[nH]c(=O)c4cc3C)CC2)cn1 [Example 11, 2-(4-((6-methoxypyridin-3-yl)oxy)piperidin-1-yl)-3-methylpyrido[2,3-d]pyridazin-5(6H)-one] | 22
12 | Cc1cc2c(=O)[nH]cnc2nc1N1CCC(Oc2ccccc2)CC1 [Example 14, 6-methyl-7-(4-phenoxypiperidin-1-yl)pyrido[2,3-d]pyrimidin-4(3H)-one] | 80
13 | Cc1cc2c(=O)[nH]cnc2nc1N1CCC(OCC2CC2)CC1 [Example 17, 7-(4-(cyclopropyl-methoxy)piperidin-1-yl)-6-methylpyrido[2,3-d]pyrimidin-4(3H)-one] | 121
14 | Cc1cc2c(=O)[nH]ncc2nc1N1CCC(OCC2CCCC2)CC1 [Example 18, 2-(4-(cyclopentyl-methoxy)piperidin-1-yl)-3-methylpyrido[2,3-d]pyridazin-5(6H)-one] | 254
15 | Cc1nc2nc(N3CCC(OCC4(C)CC4)CC3)c(C)cc2c(=O)[nH]1 [Example 20, 2,6-dimethyl-7-(4-((1-methylcyclopropyl)methoxy)piperidin-1-yl)pyrido[2,3-d]pyrimidin-4(3H)-one] | 50
16 | Cc1cc2c(=O)[nH]ncc2nc1N1CCC(Oc2cccc(C#N)c2)CC1 [Example 21, 3-((1-(3-methyl-5-oxo-5,6-dihydropyrido[2,3-d]pyridazin-2-yl)piperidin-4-yl)oxy)benzonitrile] | 26
17 | Cc1cc2c(=O)[nH]ncc2nc1N1CCC(Oc2cnn(C)c2)CC1 [Example 23, 3-methyl-2-(4-((1-methyl-1H-pyrazol-4-yl)oxy)piperidin-1-yl)pyrido[2,3-d]pyridazin-5(6H)-one] | 158
18 | Cc1cc2c(=O)[nH]ncc2nc1N1CCC(OCC2(C)CC2)CC1 [Example 24, 3-methyl-2-(4-((1-methylcyclopropyl)methoxy)piperidin-1-yl)pyrido[2,3-d]pyridazin-5(6H)-one] | 18
19 | Cc1cc2c(=O)[nH]c(=O)[nH]c2nc1N1CCC(OCC2(C)CC2)CC1 [Example 25, 6-methyl-7-(4-((1-methylcyclopropyl)methoxy)piperidin-1-yl)pyrido[2,3-d]pyrimidine-2,4(1H,3H)-dione] | 19
20 | Cc1cc2c(=O)[nH]c(=O)[nH]c2nc1N1CCC(Oc2cnn(C)c2)CC1 [Example 26, 6-methyl-7-(4-((1-methyl-1H-pyrazol-4-yl)oxy)piperidin-1-yl)pyrido[2,3-d]pyrimidine-2,4(1H,3H)-dione] | 90
21 | CCc1cc2c(=O)[nH]c(=O)[nH]c2nc1N1CCC(OCC2(C)CC2)CC1 [Example 31, 6-ethyl-7-(4-((1-methylcyclopropyl)methoxy)piperidin-1-yl)pyrido[2,3-d]pyrimidine-2,4(1H,3H)-dione] | 42
22 | Cc1cc2c(=O)[nH]c(=O)[nH]c2nc1N1CCC(OCC2CCC2)CC1 [Example 32, 7-(4-(cyclobutyl-methoxy)piperidin-1-yl)-6-methylpyrido[2,3-d]pyrimidine-2,4(1H,3H)-dione] | 236

Results, then the compound that gave them:

Row | EC50 [nM] | SMILES
23 | 114 | COc1ccc(OC2CCN(c3nc4cc[nH]c(=O)c4cc3C)CC2)cn1 [Example 12, 2-(4-((6-methoxypyridin-3-yl)oxy)piperidin-1-yl)-3-methyl-1,6-naphthyridin-5(6H)-one]
24 | 61 | COc1ccc(OC2CCN(c3nc4cnn(C)c(=O)c4cc3C)CC2)cn1 [Example 13, 2-(4-((6-methoxypyridin-3-yl)oxy)piperidin-1-yl)-3,6-dimethylpyrido[2,3-d]pyridazin-5(6H)-one]
25 | 23 | Cc1cc2c(=O)[nH]cnc2nc1N1CCC(Oc2cccc(C#N)c2)CC1 [Example 15, 3-((1-(6-methyl-4-oxo-3,4-dihydropyrido[2,3-d]pyrimidin-7-yl)piperidin-4-yl)oxy)benzonitrile]
26 | 213 | Cc1cc2c(=O)[nH]cnc2nc1N1CCC(Oc2cccnc2)CC1 [Example 16, 6-methyl-7-(4-(pyridin-3-yloxy)piperidin-1-yl)pyrido[2,3-d]pyrimidin-4(3H)-one]
27 | 74 | COc1ccc(OC2CCN(c3nc4nc(C)[nH]c(=O)c4cc3C)CC2)cn1 [Example 19, 7-(4-((6-methoxypyridin-3-yl)oxy)piperidin-1-yl)-2,6-dimethylpyrido[2,3-d]pyrimidin-4(3H)-one]
28 | 158 | Cc1nc2nc(N3CCC(Oc4cnc5c(c4)COC5)CC3)c(C)cc2c(=O)[nH]1 [Example 22, 7-(4-((5,7-dihydrofuro[3,4-b]pyridin-3-yl)oxy)piperidin-1-yl)-2,6-dimethylpyrido[2,3-d]pyrimidin-4(3H)-one]
29 | 494 | Cc1nc2nc(N3CCC(Oc4cnn(C)c4)CC3)c(C)cc2c(=O)[nH]1 [Example 27, 2,6-dimethyl-7-(4-((1-methyl-1H-pyrazol-4-yl)oxy)piperidin-1-yl)pyrido[2,3-d]pyrimidin-4(3H)-one]
30 | 95 | COCc1nc2nc(N3CCC(Oc4ccc(OC)nc4)CC3)c(C)cc2c(=O)[nH]1 [Example 28, 2-(methoxymethyl)-7-(4-((6-methoxypyridin-3-yl)oxy)piperidin-1-yl)-6-methylpyrido[2,3-d]pyrimidin-4(3H)-one]
31 | 53 | Cc1cc2c(=O)[nH]ncc2nc1N1CCC(Oc2cnc3c(c2)COC3)CC1 [Example 29, 2-(4-((5,7-dihydrofuro[3,4-b]pyridin-3-yl)oxy)piperidin-1-yl)-3-methylpyrido[2,3-d]pyridazin-5(6H)-one]
32 | 546 | COCCc1nc2nc(N3CCC(Oc4ccc(OC)nc4)CC3)c(C)cc2c(=O)[nH]1 [Example 30, 2-(2-methoxyethyl)-7-(4-((6-methoxypyridin-3-yl)oxy)piperidin-1-yl)-6-methylpyrido[2,3-d]pyrimidin-4(3H)-one]

— patent US10836775B2, “6,6-fused heteroaryl piperidine ether allosteric modulators of the M4 muscarinic acetylcholine receptor” (Merck Sharp & Dohme Corp., priority 2016, dated 2020)
